ChEMBL document CHEMBL4340516, “Synthesis and antitumor activity of novel steroidal imidazolium salt derivatives” (Eur J Med Chem, 2019)

Columns and labels:
Assay type in all cases: functional, cell-based
HL-60 = test: Antiproliferative activity against human HL60 cells assessed as reduction in cell viability incubated for 48 hrs by MTS assay; details: HL-60, 48 h
SMMC-7721 = test: Antiproliferative activity against human SMMC7721 cells assessed as reduction in cell viability incubated for 48 hrs by MTS assay; details: SMMC-7721, 48 h
MCF7 = test: Antiproliferative activity against human MCF7 cells assessed as reduction in cell viability incubated for 48 hrs by MTS assay; details: MCF7, 48 h
A549 = test: Antiproliferative activity against human A549 cells assessed as reduction in cell viability incubated for 48 hrs by MTS assay; details: A549, 48 h
SW480 = test: Antiproliferative activity against human SW480 cells assessed as reduction in cell viability incubated for 48 hrs by MTS assay; details: SW480, 48 h

Row | SMILES | IC50 (HL-60) [µM] | IC50 (SMMC-7721) [µM] | IC50 (MCF7) [µM] | IC50 (A549) [µM] | IC50 (SW480) [µM]
1 | CC(C)CCC[C@@H](C)[C@H]1CC[C@H]2[C@@H]3CC=C4C[C@H](n5ccnc5)CC[C@]4(C)[C@H]3CC[C@]12C | > 20 | > 20 | > 20 | > 20 | > 20
2 | c1ccc2[nH]cnc2c1 [BENZIMIDAZOLE] | > 20 | > 20 | > 20 | > 20 | > 20
3 | CC(C)CCC[C@@H](C)[C@H]1CC[C@H]2[C@@H]3CC=C4C[C@H](n5cc[n+](CC(=O)c6ccccc6)c5)CC[C@]4(C)[C@H]3CC[C@]12C | 6.85 | 1.49 | 8.41 | 8.42 | 9.03
4 | COc1ccc(C(=O)C[n+]2cn([C@@H]3CC[C@@]4(C)C(=CC[C@H]5[C@@H]6CC[C@H]([C@H](C)CCCC(C)C)[C@@]6(C)CC[C@@H]54)C3)c3ccccc32)cc1 | 4.41 | 1.45 | 9.85 | 7.66 | 10.1
5 | C[C@]12CC[C@H]3[C@@H](CC=C4C[C@@H](O)CC[C@@]43C)[C@@H]1CC[C@@H]2n1cc[n+](CC(=O)c2cccc(Br)c2)c1 | 6.42 | 14.9 | 7.25 | > 20 | 9.78
6 | C[C@@H]1CC[C@@]2(OC1)O[C@H]1C[C@H]3[C@@H]4CC=C5C[C@@H](O)CC[C@]5(C)[C@H]4CC[C@]3(C)[C@H]1[C@@H]2C [DISOGENIN] | > 20 | > 20 | > 20 | > 20 | > 20
7 | CC(=O)O[C@H]1CC[C@@]2(C)C(=CC[C@H]3[C@@H]4CC[C@H](n5ccnc5)[C@@]4(C)CC[C@@H]32)C1 | > 20 | > 20 | > 20 | > 20 | > 20
8 | CC(C)CCC[C@@H](C)[C@H]1CC[C@H]2[C@@H]3CC=C4C[C@@H](n5cc[n+](Cc6ccccc6Br)c5)CC[C@]4(C)[C@H]3CC[C@]12C | 2.35 | 1.44 | 7.62 | 8.05 | 7.75
9 | CC(C)CCC[C@@H](C)[C@H]1CC[C@H]2[C@@H]3C[C@H](n4cc[n+](CC(=O)c5ccccc5)c4)[C@]45C[C@H]4CC[C@]5(C)[C@H]3CC[C@]12C | 1.53 | 1.29 | 6.98 | 7.28 | 6.06
10 | CC(C)CCC[C@@H](C)[C@H]1CC[C@H]2[C@@H]3C[C@H](n4cc[n+](Cc5ccccc5Br)c4)[C@]45C[C@H]4CC[C@]5(C)[C@H]3CC[C@]12C | 5.53 | 1.16 | 10.8 | 7.65 | 10.9
11 | C[C@@H]1CC[C@@]2(OC1)O[C@H]1C[C@H]3[C@@H]4C[C@H](n5ccnc5)[C@]56C[C@H]5CC[C@]6(C)[C@H]4CC[C@]3(C)[C@H]1[C@@H]2C | 8.33 | 10 | 19.7 | 10.3 | > 20
12 | CC(C)CCC[C@@H](C)[C@H]1CC[C@H]2[C@@H]3CC=C4C[C@H](n5cc[n+](CC(=O)c6ccc7ccccc7c6)c5)CC[C@]4(C)[C@H]3CC[C@]12C | 10.6 | 1.88 | > 20 | 8.82 | 10.5
13 | COc1ccc(C(=O)C[n+]2ccn([C@H]3CC[C@H]4[C@@H]5CC=C6C[C@@H](OC(C)=O)CC[C@]6(C)[C@H]5CC[C@]34C)c2)cc1 | 2.2 | 4.31 | 3.46 | 10.7 | 6.06
14 | CC(C)CCC[C@@H](C)[C@H]1CC[C@H]2[C@@H]3C[C@H](n4cc[n+](Cc5ccc6ccccc6c5)c4)[C@]45C[C@H]4CC[C@]5(C)[C@H]3CC[C@]12C | 1.64 | 1.04 | 8.04 | 7.67 | 7.48
15 | CC(C)CCC[C@@H](C)[C@H]1CC[C@H]2[C@@H]3CC=C4C[C@@H](n5cc[n+](Cc6ccc7ccccc7c6)c5)CC[C@]4(C)[C@H]3CC[C@]12C | 5.39 | 1.41 | 8.35 | 6.95 | 9.29
16 | CC(C)CCC[C@@H](C)[C@H]1CC[C@H]2[C@@H]3CC=C4C[C@@H](n5ccnc5)CC[C@]4(C)[C@H]3CC[C@]12C | > 20 | > 20 | > 20 | > 20 | > 20
17 | CC(C)CCC[C@@H](C)[C@H]1CC[C@H]2[C@@H]3CC=C4C[C@H](n5cnc6ccccc65)CC[C@]4(C)[C@H]3CC[C@]12C | > 20 | > 20 | > 20 | > 20 | > 20

Molecules with a lower IC50 (HL-60), results first:

Row | IC50 (HL-60) [µM] | IC50 (SMMC-7721) [µM] | IC50 (MCF7) [µM] | IC50 (A549) [µM] | IC50 (SW480) [µM] | SMILES
18 | 1.36 | 1.75 | 1.53 | 1.77 | 1.74 | C[C@@H]1CC[C@@]2(OC1)O[C@H]1C[C@H]3[C@@H]4CC=C5C[C@H](n6c[n+](CC(=O)c7cccc(Br)c7)c7ccccc76)CC[C@]5(C)[C@H]4CC[C@]3(C)[C@H]1[C@@H]2C
19 | 0.44 | 0.9 | 2.91 | 9.57 | 3.22 | Cc1cc2c(cc1C)[n+](CC(=O)c1ccccc1)cn2[C@@H]1CC[C@@]2(C)C(=CC[C@H]3[C@@H]4C[C@@H]5O[C@]6(CC[C@@H](C)CO6)[C@@H](C)[C@@H]5[C@@]4(C)CC[C@@H]32)C1
20 | 1.01 | 1.15 | 1.09 | 1.12 | 1.59 | C[C@@H]1CC[C@@]2(OC1)O[C@H]1C[C@H]3[C@@H]4CC=C5C[C@H](n6cc[n+](Cc7ccc8ccccc8c7)c6)CC[C@]5(C)[C@H]4CC[C@]3(C)[C@H]1[C@@H]2C
21 | 0.43 | 0.95 | 1.41 | 1.22 | 1.66 | C[C@@H]1CC[C@@]2(OC1)O[C@H]1C[C@H]3[C@@H]4CC=C5C[C@H](n6cc[n+](Cc7ccccc7Br)c6)CC[C@]5(C)[C@H]4CC[C@]3(C)[C@H]1[C@@H]2C
22 | 0.45 | 0.57 | 3.05 | 5.53 | 3.1 | Cc1cc2c(cc1C)[n+](CC(=O)c1ccc3ccccc3c1)cn2[C@@H]1CC[C@@]2(C)C(=CC[C@H]3[C@@H]4C[C@@H]5O[C@]6(CC[C@@H](C)CO6)[C@@H](C)[C@@H]5[C@@]4(C)CC[C@@H]32)C1
23 | 1.28 | 7.28 | 5.21 | 7.03 | 6.46 | C[C@@H]1CC[C@@]2(OC1)O[C@H]1C[C@H]3[C@@H]4C[C@H](n5cc[n+](CC(=O)c6cccc(Br)c6)c5)[C@]56C[C@H]5CC[C@]6(C)[C@H]4CC[C@]3(C)[C@H]1[C@@H]2C
24 | 1.37 | 5.49 | 5.83 | 3.49 | 6.55 | C[C@@H]1CC[C@@]2(OC1)O[C@H]1C[C@H]3[C@@H]4CC=C5C[C@@H](n6cc[n+](CC(=O)c7ccc8ccccc8c7)c6)CC[C@]5(C)[C@H]4CC[C@]3(C)[C@H]1[C@@H]2C
25 | 1.1 | 1.33 | 1.67 | 1.32 | 1.75 | C[C@@H]1CC[C@@]2(OC1)O[C@H]1C[C@H]3[C@@H]4CC=C5C[C@H](n6c[n+](CC(=O)c7ccc8ccccc8c7)c7ccccc76)CC[C@]5(C)[C@H]4CC[C@]3(C)[C@H]1[C@@H]2C
26 | 1.25 | 1.51 | 1.47 | 1.94 | 2.59 | COc1ccc(C(=O)C[n+]2ccn([C@@H]3CC[C@@]4(C)C(=CC[C@H]5[C@@H]6C[C@@H]7O[C@]8(CC[C@@H](C)CO8)[C@@H](C)[C@@H]7[C@@]6(C)CC[C@@H]54)C3)c2)cc1
27 | 1.03 | 3.46 | 2.26 | 7.27 | 4.01 | C[C@@H]1CC[C@@]2(OC1)O[C@H]1C[C@H]3[C@@H]4C[C@H](n5cc[n+](CC(=O)c6ccc7ccccc7c6)c5)[C@]56C[C@H]5CC[C@]6(C)[C@H]4CC[C@]3(C)[C@H]1[C@@H]2C
28 | 1.26 | 1.75 | 2.1 | 4.39 | 4.45 | CC(=O)O[C@H]1CC[C@@]2(C)C(=CC[C@H]3[C@@H]4CC[C@H](n5cc[n+](CC(=O)c6ccc7ccccc7c6)c5)[C@@]4(C)CC[C@@H]32)C1
29 | 1.22 | 1.45 | 2.11 | 2.45 | 2.55 | COc1ccc(C(=O)C[n+]2cn([C@@H]3CC[C@@]4(C)C(=CC[C@H]5[C@@H]6C[C@@H]7O[C@]8(CC[C@@H](C)CO8)[C@@H](C)[C@@H]7[C@@]6(C)CC[C@@H]54)C3)c3ccccc32)cc1
30 | 1.42 | 1.22 | 8.7 | 7.84 | 8.23 | CC(C)CCC[C@@H](C)[C@H]1CC[C@H]2[C@@H]3C[C@H](n4cc[n+](CC(=O)c5cccc(Br)c5)c4)[C@]45C[C@H]4CC[C@]5(C)[C@H]3CC[C@]12C
31 | 0.98 | 1.39 | 2.78 | 7.15 | 2.22 | Cc1cc2c(cc1C)[n+](CC(=O)c1cccc(Br)c1)cn2[C@@H]1CC[C@@]2(C)C(=CC[C@H]3[C@@H]4C[C@@H]5O[C@]6(CC[C@@H](C)CO6)[C@@H](C)[C@@H]5[C@@]4(C)CC[C@@H]32)C1
